The values that follow come from patent US20140288025A1, “FATTY ACID ANTIVIRAL CONJUGATES AND THEIR USES” (Catabasis Pharmaceuticals, Inc., priority 2013, published 2014).

In the test the test system is NF-κB. Nature of the test: NF-κB luciferase reporter assay in RAW 264.7 macrophages. The format is cell-based. Particulars: Mus musculus. Here is the method:
RAW 264.7 cells stably expressing a 3×NFkB response element-drive luciferase reporter were seeded into 96 well plates in sera-free medium (Optimem) 18 hours prior to compound application. Compounds of the invention were prepared by first making 100 mM stock solutions in EtOH. […] Cells were then stimulated with 200 ng/ml LPS or vehicle control for 3 hours in the presence of the compounds of the invention. A set of six vehicles was left unstimulated with LPS in order to measure the assay floor. AlamarBlue viability dye (Invitrogen) was added to cells simultaneously with the delivery of LPS (final AlamarBlue concentration of 10%). After the 3 h incubation period with LPS, cell viability was measured by reading fluorescence (excitation 550 nm, emission 595 nm) with a Perkin Elmer Victor V plate reader. Then cell media was aspirated from each well. Luciferase signal was then developed by addition of the Britelite Plus reagent (Perkin Elmer). Luciferase activity was measured with the Perkin Elmer Victor V plate reader. NE-κB activity was expressed as a percent of the vehicle control wells (stimulated with LPS). Compounds were tested at 6 dose point titrations in triplicate to determine IC50 values.

The mark [1] stands for this setting: RAW264.7, RAW 264.7 reporter cells, 200 ng/ml LPS, 3 hours, read-out: NF-kB inhibitory activity IC50.
Where [2] appears, read: RAW264.7, 3 h, read-out: NF-kB inhibitory activity IC50 μM.

Read-outs that look alike come from different tables or passages of the source. A value given as a limit tells only on which side of the number the result lay.

`CC/C=C\C/C=C\C/C=C\C/C=C\C/C=C\CCCC(=O)Nc1ncc2ncn(CCC(COC(C)=O)COC(C)=O)c2n1` [Example V-12, 2-(2-(2-((5Z,8Z,11Z,14Z,17Z)-icosa-5,8,11,14,17-pentaenamido)-9H-purin-9-yl)ethyl)propane-1,3-diyl diacetate]: the IC50 under setting [1] fell in the range of 50 to 200 µM.

`CC/C=C\C/C=C\C/C=C\C/C=C\C/C=C\C/C=C\CCC(=O)NCCN(C)CCNC(=O)OC[C@H]1O[C@@H](n2ccc(N)nc2=O)[C@](C)(F)[C@@H]1O` [Example V-30, ((2R,3R,4R,5R)-5-(4-amino-2-oxopyrimidin-1(2H)-yl)-4-fluoro-3-hydroxy-4-methyltetrahydrofuran-2-yl)methyl (2-((2-((4Z,7Z,10Z,13Z,16Z,19Z)-docosa-4,7,10,13,16,19-hexaenamido)ethyl)(methyl)amino)ethyl)carbamate]: the IC50 under setting [1] was < 50 µM.

As for `Cc1cn([C@H]2C[C@H](N=[N+]=[N-])[C@@H](CO)O2)c(=O)[nH]c1=O` [Zidovudine, reference compound], the IC50 under setting [1] was > 200 µM.

As to `CC/C=C\C/C=C\C/C=C\C/C=C\C/C=C\CCCC(=O)NCCNP(=O)(OC)OC[C@@H]1O[C@H](n2ccc(N)nc2=O)CS1` (stereo partly drawn) [II-70, ((2R,5S)-5-(4-amino-2-oxopyrimidin-1(2H)-yl)-1,3-oxathiolan-2-yl)methyl methyl (2-((5Z,8Z,11Z,14Z,17Z)-icosa-5,8,11,14,17-pentaenamido)ethyl)phosphoramidate], the IC50 under setting [2] was in the range of 50 to 200 µM.

As for `CC/C=C\C/C=C\C/C=C\C/C=C\C/C=C\C/C=C\CCC(=O)NCCOCCNC(=O)OC[C@H]1O[C@H](n2cc(C)c(=O)[nH]c2=O)C[C@@H]1N=[N+]=[N-]` [Example V-8, ((2S,3S,5S)-3-azido-5-(5-methyl-2,4-dioxo-3,4-dihydropyrimidin-1(2H)-yl)tetrahydrofuran-2-yl)methyl (2-(2-((4Z,7Z,10Z,13Z,16Z,19Z)-docosa-4,7,10,13,16,19-hexaenamido)ethoxy)ethyl)carbamate], the IC50 under setting [1] lay in the range of 50 to 200 µM.

`Nc1ccn([C@@H]2CS[C@H](CO)O2)c(=O)n1` [Lamivudine, lamivudine, reference compound]: the IC50 under setting [1] was > 200 µM.

Consider `C=C1[C@H](CO)[C@@H](O)C[C@@H]1n1cnc2c(=O)[nH]c(N)nc21` [Entecavir, entecavir, reference compound], for which the IC50 under setting [1] is > 200 µM.

Consider `CC/C=C\C/C=C\C/C=C\C/C=C\C/C=C\C/C=C\CCC(=O)Nc1ncc2ncn(CCC(CO)CO)c2n1` [Example V-11, (4Z,7Z,10Z,13Z,16Z,19Z)—N-(9-(4-hydroxy-3-(hydroxymethyl)butyl)-9H-purin-2-yl)docosa-4,7,10,13,16,19-hexaenamide], for which, under setting [1], the IC50 lay in the range of 50 to 200 µM.

As to `CC/C=C\C/C=C\C/C=C\C/C=C\C/C=C\C/C=C\CCC(=O)Nc1ncc2ncn(CCC(COC(C)=O)COC(C)=O)c2n1` [Example V-10, 2-(2-(2-((4Z,7Z,10Z,13Z,16Z,19Z)-docosa-4,7,10,13,16,19-hexaenamido)-9H-purin-9-yl)ethyl)propane-1,3-diyl diacetate], under setting [1], the IC50 was 50 to 200 µM.

`CC(=O)OCC(CCn1cnc2cnc(N)nc21)COC(C)=O` [Famciclovir, reference compound]: the IC50 under setting [1] was > 200 µM.

On to `CC(C)CN(C[C@@H](O)[C@H](Cc1ccccc1)NC(=O)O[C@H]1CO[C@H]2OCC[C@H]21)S(=O)(=O)c1ccc(N)cc1` [Darunavir, darunavir, reference compound], for which the IC50 under setting [2] is > 200 µM.

Turning to `CC/C=C\C/C=C\C/C=C\C/C=C\C/C=C\C/C=C\CCC(=O)N[C@H](C(=O)OC[C@H]1O[C@H](n2cc(C)c(=O)[nH]c2=O)C[C@@H]1N=[N+]=[N-])C(C)C` [Example V-9, (S)-((2S,3S,5S)-3-azido-5-(5-methyl-2,4-dioxo-3,4-dihydropyrimidin-1(2H)-yl)tetrahydrofuran-2-yl)methyl 2-((4Z,7Z,10Z,13Z,16Z,19Z)-docosa-4,7,10,13,16,19-hexaenamido)-3-methylbutanoate], the IC50 under setting [1] is 50 to 200 µM.
